System: human glia cell line SVGP12
Assay: MTS cell viability assay, normal glia cell line SVGP12
Format: cell-based
Conditions: 0.00625-1 μM
Description: The human glioma cell lines U87, U251, T98G, U373, and rat glioma cell line RT2 provided by Dr. Michael Hsiao (Genomics Research Center, Academia Sinica, Taiwan) were cultured in Dulbecco's Modified Eagle medium (DMEM) (Caisson) supplemented with 10% fetal bovine serum (FBS) (Sigma-Aldrich), 2 mM L-glutamine (Caisson), 100 U/ml penicillin, and 100 μg/ml streptomycin (Caisson). The rat glioma C6 cell line provided by Dr. Shun-Fen Tzeng (National Cheng Kung University, Taiwan) was cultured in DMEM/F12 (Caisson) supplemented with 10% fetal bovine serum, 2 mM L-glutamine, 100 U/ml penicillin, and 100 μg/ml streptomycin. […] Cell proliferation was determined by MTS (tetrazolium compound, 3-(4,5-dimethylthiazol-2-yl)-5-(3-carboxymethoxyphenyl)-2-(4-sulfophenyl)-2H-tetrazolium) assay (Promega). […] The absorbance of soluble formazan was measured at 490 nm with microplate reader (Molecular device). The cell viability was determined by the percentage of the absorption relative to untreated control. […] To investigate the influence of MJ-66 on normal glia such as human glia cell line SVGP12 and rat primary glia cells, cells were treated with different concentrations of MJ-66 in vitro (0.00625, 0.0125, 0.025, 0.05, 0.1 and 1 μM) for different time durations (0, 6, 12 and 24 hours) and the cell viability was assessed by MTS assay. […]

Compound: O=c1[nH]c(-c2cccc3ccccc23)nc2ccc(N3CCCC3)cc12 [Compound 23, 6-(Pyrrolidin-1-yl)-2-(naphthalen-1-yl)quinazolin-4-one]
- cell viability of SVGP12: inhibited

— US8710064B2, “2-aryl-4-quinazolinones and their pharmaceutical compositions” (China Medical University, priority 2011, dated 2014)
